Tests used:
Jurkat (human T cell) = assay: Cell attachment on coated low-attachment polystyrene wells; assay type: cell-based; conditions: 10^4 cells/well, serum-containing medium
Text: (§1) Several cell types were used, including GS-9L cells (rat gliosarcoma), C3H10T1/2 (murine fibroblasts), Jurkat (human T cell), bovine aorta endothelial (BAE) cells and rat lymphocytes. GS-9L and C3H10T1/2 cells were maintained in log phase growth and detached from cultureware using Versene and collected by centrifugation. Jurkat cells grew as single cell suspensions and were collected by centrifugation. Rat lymphocytes were collected from heparinized blood by density gradient isolation over Ficoll-Hypaque® media. The collected cells were rinsed once by low speed centrifugation and suspended in either serum-free Dulbecco's Modified Eagles Medium (DMEM) containing pyruvate or RPMI 1640 containing 10% fetal bovine serum (FBS) supplemented with pyruvate. Aliquots of 10^4 cells in 100 μL were used in subsequent adhesion studies.
(§2) The cells were examined after plating using an inverted, phase-contrast microscope. […] The amount of attachment was scored visually or quantitated. To establish the relative number of cells bound, crystal violet stained cells were dissolved in a solution of 70% ethanol containing 0.1% sodium dodecyl sulfate and 0.38 M Tris and the absorbance monitored at 610 nm, using the methods of Scragg and Ferreira (Anal Biochem 198:80-5, 1991) and Grando et al. (Skin Pharmacol 6:135-47, 1993). […]

rat lymphocytes = assay: as above; assay type: cell-based; conditions: 10^4 cells/well, serum-containing medium
Text: as §1, §2

C3H10T1/2 cells = assay: C3H10T1/2 cell attachment to a variety of coated substrates; assay type: cell-based, murine
Experimental: The cells were examined after plating using an inverted, phase-contrast microscope. At selected time points up to 4 days after initial seeding, the cells were rinsed three times in saline and fixed in buffered 10% formalin or 35% ethanol. In some cases, the cells were stained in situ with a 0.01 % aqueous solution of crystal violet. The amount of attachment was scored visually or quantitated. To establish the relative number of cells bound, crystal violet stained cells were dissolved in a solution of 70% ethanol containing 0.1% sodium dodecyl sulfate and 0.38 M Tris and the absorbance monitored at 610 nm, using the methods of Scragg and Ferreira (Anal Biochem 198:80-5, 1991) and Grando et al. (Skin Pharmacol 6:135-47, 1993).
The general applicability of silyl-heparin-fibronectin complex was evaluated by applying this coating using the methods of Examples 4 and 5 to a variety of surfaces, including polystyrene, polylactide:polyglycolide, polycaprolactone, polyurethane and stainless steel. […] They did, however, bind moderately well to polylactide:polyglycolide and to polycaprolactone, and very well to stainless steel.

antithrombin/factor Xa = target: T1, antithrombin/factor Xa (Homo sapiens, UniProt P01008); assay: Loading efficiency of silyl-heparin complexes on materials, heparin-specific assays; assay type: biochemical; conditions: varied by substrate material (polystyrene, polycarbonate, polyurethane, stainless steel, titanium and others)
T1 construct: purchased Sigma Diagnostics Procedure No. CRS 106
Text: Using contacting surfaces coated with silyl-heparin as in Example 4, and to which silyl-heparin-fibronectin was attached as in Example 5, the presence of both heparin and fibronectin was detected in analytical assays. Heparin was detected using a commercially-available an enzyme-linked assay kit (Sigma Chemical Co., St. Louis) that measured the heparin-induced inhibition of antithrombin/factor Xa as measured with a factor Xa specific chromogenic substrate. The enzyme-inhibition assay was performed in low-attachment 96 well plates following the directions of the manufacturer.
In related studies, heparin-specific assays and diemethylene blue dye uptake were used to establish that silyl-heparin complexes could be bound to a variety of materials including polystyrene, hydrogel-coated polystyrene, polycarbonate, polyurethane, poly caprolactone, polyvinylchloride, stainless steel and titanium. The loading efficiency of silyl-heparin complexes varied by substrate material, but was generally in the range of 10-40 mlU of heparin per cm^2.

[1] = tested on: Bovine aorta endothelial cells; assay: Capillary tube formation on coated low attachment wells; assay type: cell-based; conditions: 5×10^3 cells per well; DMEM containing 10% FBS; 4 days; phase contrast microscopy
Experimental: Low attachment 96 well plates were coated with saline, silyl-heparin complex, silyl-heparin-fibrinogen complex or silyl-heparin-bFGF complex. Bovine aorta endothelial cells (5×10^3 cells) were seeded into each well in DMEM containing 10% FBS. The cells were allowed to grow for 4 days and the cultures examined by phase contrast microscopy.

[2] = tested on: Bovine aorta endothelial cells; assay: Growth of endothelial cells across a porous membrane from coated sutures, crystal violet; assay type: cell-based; conditions: coated suture separated from cells by 3 micron pore membrane; 4 days
Experimental: Six-well cluster plates were seeded with 5×10^4 bovine aorta endothelial cells. Cell culture insert membranes (25 mm diameter) with 3 micron pores in the bottom were placed in each well. Suture material was coated with silyl-heparin-bFGF or silyl-heparin. 10 cm of suture material, either coated or uncoated, was placed in each well and medium added sufficient to cover the suture (3 mL total). One set of inserts containing an uncoated suture was spiked with 50 ng of bFGF by adding the bFGF directly to the medium and was used as a positive control. The cells were allowed to grow for 4 days, and were then fixed and stained with crystal violet. Thereafter, the stain was eluted in aqueous methanol and 0.4% SDS and monitored at 595 nm. bFGF from the silyl-heparin-bFGF coated suture was able to transit the separating permeable 3 micron membrane and act regionally to stimulate the growth of endothelial cells at the end of 4 days, as shown in FIG. 6.

[3] = tested on: thigh muscle of adult rats; assay: Coated Vicryl sutures implanted in muscle, histology; assay type: in vivo; conditions: two weeks; compared to control suture
Text: Vicryl suture material was coated using a solution containing silyl-heparin complex or a solution containing silyl-heparin complex followed by immersion in bFGF as described above. The suture material was then rinsed extensively, air-dried, mounted on 16 gage needles and stored until use, typically overnight. Under anesthesia, the sutures were passed through the thigh muscle of adult rats and secured with knots and surgical clips. After two weeks the animals were euthanized and the sutured area removed, fixed in formalin, and processed by standard histological methods.

T1 sequence (P01008 33-464): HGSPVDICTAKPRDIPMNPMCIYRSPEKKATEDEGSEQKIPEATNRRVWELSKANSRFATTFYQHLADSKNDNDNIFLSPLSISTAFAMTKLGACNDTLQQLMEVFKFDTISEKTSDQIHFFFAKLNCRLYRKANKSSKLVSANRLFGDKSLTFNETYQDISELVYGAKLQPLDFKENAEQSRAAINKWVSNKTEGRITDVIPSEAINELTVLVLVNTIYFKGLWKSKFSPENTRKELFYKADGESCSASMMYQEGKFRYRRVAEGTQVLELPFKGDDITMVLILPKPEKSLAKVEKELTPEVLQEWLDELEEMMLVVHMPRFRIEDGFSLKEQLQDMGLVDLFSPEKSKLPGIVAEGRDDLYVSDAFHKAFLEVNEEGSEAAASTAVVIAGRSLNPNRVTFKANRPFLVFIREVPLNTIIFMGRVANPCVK

“benzyl-(1,2 dimethyl)disilyl heparin [silyl-heparin]” was tested, and the “CELL ATTACHMENT” value (Jurkat (human T cell)) was “did not attach”, the “CELL ATTACHMENT” value (rat lymphocytes) was “did not attach” and the “C3H10T1/2 cell attachment on prolonged culture” value (C3H10T1/2 cells; cells cultured for up to 4 days) was “no cell attachment was evident”. For the same substance, the “effect of coating or treatment on C3H10T1/2 cell attachment” value (C3H10T1/2 cells; regardless of the substrate) was “essentially eliminated cell attachment”, the “C3H10T1/2 CELL ATTACHMENT” value (C3H10T1/2 cells; surface: Stainless steel, determined by crystal violet staining) was “inhibition of cell attachment was noted” and the “loading efficiency of silyl-heparin complexes” value (antithrombin/factor Xa) was 10-40 mlU of heparin per cm^2. For the same substance, the capillary tube formation [1] was “Tubes did not form”, the “growth (cell number) of endothelial cells” value [2] was “did not result in an increase in cell number” and the “diameter or area of granulation tissue surrounding the suture” value [3] was “tended to have a smaller area of granulation”.
